Reference: patent US7763707B2, “Use of ghrelin splice variant for treating cachexia and/or anorexia and/or anorexia-cachexia and/or malnutrition and/or lipodystrophy and/or muscle wasting and/or appetite-stimulation” (priority 2006, dated 2010)
Square brackets hold non-standard residues; d marks the D form. Ends that are not written are not given here. * marks the point of attachment. Octanoyl = CCCCCCCC(=O)*; Dap = NC[C@H](N)C(=O)O

Columns and labels:
[1] = Subcutaneous administration of acylated ghrelin splice variant: weight gain, food consumption, body composition in 129Sv mice; type: in vivo
Procedure: FIG. 1A is a line graph showing cumulative body weight gain of acylated ghrelin splice variant-treated (SEQ ID NOs: 2 and 5) 129Sv mice compared to vehicle-treated controls. Acylated ghrelin splice variant induces body weight gain in male wild-type mice (n=10 per group, P=0.0001). In mice treated once daily for two weeks with acylated ghrelin splice variant (0.8 mg/kg, subcutaneously), cumulative weight gain of the SEQ ID NO:2 group was 3.4 times more than the vehicle-injected control animals. Cumulative weight gain of the acylated SEQ ID NO:5 group was 2 times more than the vehicle-injected control animals. FIG. 1B is a line graph showing cumulative food consumption of acylated ghrelin splice variant-treated (SEQ ID NOs: 2 and 5) 129Sv mice compared to vehicle-treated controls. […] Mice treated once daily for two weeks with acylated ghrelin splice variant (0.8 mg/kg, subcutaneously) ate 13% more than the vehicle-injected control animals (n=10 per group, P=0.004).
FIG. 2A is a line graph showing cumulative body weight gain of acylated ghrelin splice variant-treated (SEQ ID NOs: 2 and 4) 129Sv mice and of unacylated SEQ ID NO:5 compared to vehicle-treated controls. Acylated ghrelin splice variants induces body weight gain in male wild-type mice (n=8 per group, P=0.0001). In mice treated once daily for seven days with acylated or un-acylated ghrelin splice variant (7.2 mg/kg, subcutaneously), cumulative weight gain of the SEQ ID NO:2 and SEQ ID NO:4 group was 2.2 times more than the vehicle-injected control animals. Cumulative weight gain of the un-acylated SEQ ID NO:5 group was 25% less than the vehicle-injected control animals. FIG. 2B is a line graph showing cumulative food consumption of acylated ghrelin splice variant-treated (SEQ ID NOs: 2 and 4) 129Sv mice and of unacylated SEQ ID NO:5 compared to vehicle-treated controls. […] Mice treated once daily for seven days with acylated ghrelin splice variants (7.2 mg/kg, subcutaneously) ate 18% more than the vehicle-injected control animals (n=8 per group). Mice treated once daily for seven days with SEQ ID NO:5 (7.2 mg/kg, subcutaneously) ate 2% less than the vehicle-injected control animals (n=8 per group).
FIG. 4 is a bar graph showing the change in body composition of acylated ghrelin splice variant-treated (SEQ ID NOs: 2 and 4) 129Sv mice and unacylated SEQ ID NO:5 treated mice compared to vehicle and ghrelin-treated controls. Effect of seven days daily subcutaneous treatment with saline, ghrelin or acylated ghrelin splice variant (7.2 mg/kg, subcutaneously) on fat and lean body mass as measured by NMR is shown.
Acylated ghrelin splice variant (20 μg (FIGS. 1A and 1B) or 180 μg (FIGS. 2A and 2B)) or the Vehicle (1.6% mannitol) were administered once daily for 14 successive days (FIGS. 1A and 1B) or 7 successive days (FIGS. 2A and 2B), via the subcutaneous (SC) route, to groups comprising n=10 (FIGS. 1A and 1B) or n=8 (FIGS. 2A and 2B) 129Sv male mice. […] All animals were subjected to terminal bleeding, under CO2 anesthesia, immediately prior to euthanasia. Terminal blood collection was performed serially as per animal number, and not as per group.
Biochemistry: Blood for biochemistry analysis was collected into non-coated pre-labeled tubes. The tubes were pre-labeled and contained the following information: Study number, group number, animal number and date. Following clotting, the blood from each animal was centrifuged, and the serum was collected into two pre-labeled tubes and submitted for analysis as follows: Serum, 250 μl, was kept at 2-8° C. until analysis. The samples were subjected to the following listed tests using a Hitachi 917 system: Creatinine, Total bilirubin, Glucose, Triglycerides, Cholesterol, HDL, LDL, Total protein, Globulin, Albumin, Urea, Potassium, Phosphorus, Calcium, Sodium, Chloride, sGOT, sGPT, ALP. Urinalysis: Urine was collected into pre-labeled tubes (as above) from all animals (where possible) prior and/or after euthanasia. […]

[2] = cited from earlier work
[3] = 129Sv male mice, 0.8 mg/kg subcutaneously once daily for two weeks, n=10 per group
[4] = 129Sv male mice, 7.2 mg/kg subcutaneously once daily for seven days, n=8 per group

## GSS (CO—C7H15) FLSPEHQRVQVRPPHKAPH (GSS(Octanoyl)FLSPEHQRVQVRPPHKAPH; listed as Homo sapiens) [SEQ ID NO:2, 22 amino acid human ghrelin splice variant, acylated at position 3]
[1]; [3]
  cumulative weight gain, times more than the vehicle-injected control animals: 3.4 times
[1]; [4]
  cumulative weight gain, times more than the vehicle-injected control animals: 2.2 times

## ghrelin: 28 amino acid peptide bearing an n-octanoyl side chain on the third serine (GSS(Octanoyl)FLSPEHQRVQQRKESKKPPAKLQPR; UniProt Q9UBU3 24-51, looked up)
[1]; Applicant's statement in the background
  effect of weight gain (lean vs fat mass): mainly on fat mass
[2]; infusion for 90 minutes, cancer cachexia patients
  increase of food intake: 30%
[2]; subcutaneous injection of 3.6 nmol/kg prior to a meal
  increase of energy intake: 27%

## SEQ ID NO:4: 24 amino acid human ghrelin splice variant having a 2,3-diaminopropionic acid (Dpr) residue in the third position, acylated (GS[Dap]FLSPEHQRVQVRPPHKAPHVV; also: Dpr3 acylated, acyl group not given here; listed as Homo sapiens)
[1]; [4]
  cumulative weight gain, times more than the vehicle-injected control animals: 2.2 times

## acylated SEQ ID NO:5: 29 amino acid human ghrelin splice variant, acylated at position 3 (GSSFLSPEHQRVQVRPPHKAPHVVPALPL; also: acylated at position 3 (acyl group not given here); listed as Homo sapiens)
[1]; [3]
  cumulative weight gain, times more than the vehicle-injected control animals: 2 times

## un-acylated SEQ ID NO:5: 29 amino acid human ghrelin splice variant without acyl group (GSSFLSPEHQRVQVRPPHKAPHVVPALPL; listed as Homo sapiens)
[1]; [4]
  cumulative weight gain, less than the vehicle-injected control animals: 25%
[1]; 129Sv mice, 7.2 mg/kg subcutaneously once daily for seven days, n=8 per group
  cumulative food consumption, less than the vehicle-injected control animals: 2%
